For assay [1], the system named is C-mycG4 (Pu-27); C-myc G4 (DNA, G4) TGGGGAGGGTGGGGAGGGTGGGGAAGG
The experiment in a line: PCR-stop assay. The note with it: 50 mM KCl; Platinum Supermix, 0.5 uM each oligonucleotide, Pu27rev primer; dose-dependent reduction of product.

Assay [2] concerns c-myc_G4_2345; Pu21_2345 (DNA, G4) GAGGGTGGGGAGGGTGGGGAA
Briefly: SPR (Biacore 3000), 1:1 Langmuir kinetics. The note with it: 200 mM KCl, 5 mM MgCl2, 20 mM HEPES pH 7.5, 1% DMSO, 0.005% P-20, immobilised compound.

Assay [3] has as its system C-kit2; C-kit2 G4 (DNA, G4) GGGCGGGCGCGAGGGAGGGG
Briefly: SPR (Biacore 3000), 1:1 Langmuir kinetics. The note with it: 200 mM KCl, 5 mM MgCl2; 20 mM HEPES pH 7.5, 1% DMSO, 0.005% P-20; immobilised compound. For orientation: Surface plasmon resonance follows binding to a sensor surface in real time, without labels.

Assay [4] deals with c-myc_G4_1234; Pu21_1234 (DNA, G4) TGGGGAGGGTGGGGAGGGTGG
Briefly: SPR (Biacore 3000), 1:1 Langmuir kinetics. The note with it: 200 mM KCl, 5 mM MgCl2, 20 mM HEPES pH 7.5, 1% DMSO, 0.005% P-20, immobilised compound.

Assay [5] deals with C-mycG4 (Pu-27); C-myc G4 (DNA, G4) TGGGGAGGGTGGGGAGGGTGGGGAAGG
Briefly: SPR (Biacore 3000), 1:1 Langmuir kinetics. Conditions: 200 mM KCl, 5 mM MgCl2, 20 mM HEPES pH 7.5, 1% DMSO, 0.005% P-20, immobilised compound.

Assay [6] concerns Pu27rev (DNA, single strand) ATCGATCGCTTCTTCGTCCTTCCCCA
The experiment in a line: SPR (Biacore 3000). The note with it: 200 mM KCl, 5 mM MgCl2; 20 mM HEPES pH 7.5, 1% DMSO, 0.005% P-20; immobilised compound; NB, oligonucleotide up to 10 uM.

The subject of assay [7] is C-kit1; C-kit1 G4 (DNA, G4) AGGGAGGGCGCTGGGAGGAGGG
The experiment in a line: SPR (Biacore 3000), 1:1 Langmuir kinetics. Conditions: 200 mM KCl, 5 mM MgCl2; 20 mM HEPES pH 7.5, 1% DMSO, 0.005% P-20; immobilised compound.

One may read the KD as the free concentration of one partner at which half of the binding sites on the other are occupied at equilibrium, for simple one-to-one binding.

As to `Cc1cnccc1N1CCN(c2nccc3c2nc(-c2c[nH]c4ccncc24)n3CCOCCOCCN)CC1`, in assay [1], the binding result is reported as “yes”.

On to `Cc1cnccc1N1CCN(c2nccc3c2nc(-c2c[nH]c4ccncc24)n3CCOCCOCCNC(=O)CCCC[C@@H]2SC[C@@H]3NC(=O)N[C@@H]32)CC1`, for which the dissociation constant KD came out at 197 nM in assay [2] (text prints 190 nM); 1.4 µM in assay [3]; 59 nM in assay [4]; 328 nM in assay [5]; 807 nM in assay [7]. Besides, the binding result in assay [6] was “no”.

Consider `Cn1cccc1CN(CC(=O)NCCOCCOCCN)Cc1ccc(OCC(=O)NCc2nc3ccccc3c(=O)[nH]2)c(Cl)c1`, for which, in assay [1], the binding entry is “yes”.

For `Cn1cccc1CN(CC(=O)NCCOCCOCCNC(=O)CCCC[C@@H]1SC[C@@H]2NC(=O)N[C@@H]21)Cc1ccc(OCC(=O)NCc2nc3ccccc3c(=O)[nH]2)c(Cl)c1`, the KD was found to be 308 nM in assay [2]; 1.7 µM in assay [3]; 338 nM in assay [4] (text prints 328 nM); 1050 nM in assay [5] (text prints 1.06 µM); 1100 nM in assay [7]. For the same compound, the binding entry in assay [6] is reported as “no”.

Source of the values: article PMC6572338 (2019).
